Data from EP0584797A2, “Novel cephalosporin compounds and processes for the preparation thereof” (LUCKY LTD., priority 1992, dated 1994).
In brackets after ≈: the same amount, converted by molar mass.

Experiments:
Test in all cases: minimal inhibitory concentration, two-fold agar dilution
Format in all cases: cell-based
[1] = tested on: Morganella morganii ATCC 8076h; settings: ATCC8076H, Muller-Hinton agar, 37°C, 20 hours, read-out: MIC values against the standard strains
Experimental: (§1) These MIC values were taken by employing a two-fold dilution method: that is, two-fold serial dilutions of each of the test compounds were made and dispersed in a Muller-Hinton agar medium; 2µl of the standard test strain which had the 10⁷ CFU(Colony Forming Unit) per ml was inoculated on the medium; and these were incubated at 37°C for 20 hours.

[2] = tested on: Enterobacter cloacae ATCC 27508; settings: ATCC27508, Muller-Hinton agar, 37°C, 20 hours, read-out: MIC values against the standard strains
Experimental: as §1

[3] = tested on: Providencia rettgeri ATCC 9250; settings: ATCC9250, Muller-Hinton agar, 37°C, 20 hours, read-out: MIC values against the standard strains
Experimental: as §1

[4] = tested on: Serratia marcescens ATCC 27117; settings: ATCC27117, Muller-Hinton agar, 37°C, 20 hours, read-out: MIC values against the standard strains
Experimental: as §1

[5] = tested on: Proteus vulgaris ATCC 6059; settings: ATCC6059, Muller-Hinton agar, 37°C, 20 hours, read-out: MIC values against the standard strains
Experimental: as §1

[6] = tested on: Citrobacter freundii ATCC 8090; settings: ATCC8090, Muller-Hinton agar, 37°C, 20 hours, read-out: MIC values against the standard strains
Experimental: as §1

[7] = tested on: Pseudomonas aeruginosa ATCC 27853; settings: ATCC27853, Muller-Hinton agar, 37°C, 20 hours, read-out: MIC values against the standard strains
Experimental: as §1

[8] = tested on: Klebsiella pneumoniae ATCC 10031; settings: ATCC10031, Muller-Hinton agar, 37°C, 20 hours, read-out: MIC values against the standard strains
Experimental: as §1

[9] = tested on: Staphylococcus aureus ATCC 10537; settings: ATCC10537, Muller-Hinton agar, 37°C, 20 hours, read-out: MIC values against the standard strains
Experimental: as §1

[10] = tested on: Shigella flexneri ATCC 11836; settings: ATCC11836, Muller-Hinton agar, 37°C, 20 hours, read-out: MIC values against the standard strains
Experimental: as §1

[11] = tested on: Pseudomonas aeruginosa ATCC 10145; settings: ATCC10145, Muller-Hinton agar, 37°C, 20 hours, read-out: MIC values against the standard strains
Experimental: as §1

[12] = tested on: Enterobacter aerogenes ATCC 29751; settings: Klebsiella aerogenes, ATCC29751; Muller-Hinton agar; 37°C; 20 hours; read-out: MIC values against the standard strains
Experimental: as §1

[13] = tested on: Pseudomonas aeruginosa ATCC 25619; settings: ATCC25619, Muller-Hinton agar, 37°C, 20 hours, read-out: MIC values against the standard strains
Experimental: as §1

[14] = tested on: Streptococcus faecalis ATCC 29212; settings: Enterococcus faecalis, ATCC29212; Muller-Hinton agar; 37°C; 20 hours; read-out: MIC values against the standard strains
Experimental: as §1

[15] = tested on: Staphylococcus aureus ATCC 6538p; settings: ATCC6538P, Muller-Hinton agar, 37°C, 20 hours, read-out: MIC values against the standard strains
Experimental: as §1

[16] = tested on: Escherichia coli ATCC 10536; settings: ATCC10536, Muller-Hinton agar, 37°C, 20 hours, read-out: MIC values against the standard strains
Experimental: as §1

[17] = tested on: Bacillus cereus ATCC 11778; settings: ATCC11778, Muller-Hinton agar, 37°C, 20 hours, read-out: MIC values against the standard strains
Experimental: as §1

[18] = tested on: Salmonella typhimurium ATCC 14028; settings: Salmonella enterica; Muller-Hinton agar; 37°C; 20 hours; read-out: MIC values against the standard strains
Experimental: as §1

[19] = tested on: Micrococcus luteus ATCC 9341; settings: ATCC9341, Muller-Hinton agar, 37°C, 20 hours, read-out: MIC values against the standard strains
Experimental: as §1

[20] = tested on: Acinetobacter calcoaceticus ATCC 15473; settings: ATCC15473, Muller-Hinton agar, 37°C, 20 hours, read-out: MIC values against the standard strains
Experimental: as §1

[21] = tested on: Shigella sonnei ATCC 11060; settings: ATCC11060, Muller-Hinton agar, 37°C, 20 hours, read-out: MIC values against the standard strains
Experimental: as §1

[22] = tested on: Bacillus megaterium ATCC 9885; settings: Priestia megaterium, ATCC9885; Muller-Hinton agar; 37°C; 20 hours; read-out: MIC values against the standard strains
Experimental: as §1

[23] = tested on: Proteus mirabilis ATCC 25933; settings: ATCC25933, Muller-Hinton agar, 37°C, 20 hours, read-out: MIC values against the standard strains
Experimental: as §1

[24] = tested on: Staphylococcus epidermidis ATCC 12228; settings: ATCC12228, Muller-Hinton agar, 37°C, 20 hours, read-out: MIC values against the standard strains
Experimental: as §1

[25] = tested on: Escherichia coli ATCC 25922; settings: ATCC25922, Muller-Hinton agar, 37°C, 20 hours, read-out: MIC values against the standard strains
Experimental: as §1

SMILES	MIC [1]	MIC [2]	MIC [3]	MIC [4]	MIC [5]	MIC [6]	MIC [7]	MIC [8]	MIC [9]	MIC [10]	MIC [11]	MIC [12]	MIC [13]	MIC [14]	MIC [15]	MIC [16]	MIC [17]	MIC [18]	MIC [19]	MIC [20]	further results
CCO/N=C(\C(=O)N[C@@H]1C(=O)N2C(C(=O)[O-])=C(CSc3nc(N)c(N)c[n+]3N)CS[C@H]12)c1csc(N)n1 [Example 46, 7-[(Z)-2-(2-aminothiazol-4-yl)-2-(ethoxyimino)acetamido]-3-(1,4,5-triaminopyrimidinium-2-yl)thiomethyl-3-cephem-4-carboxylate]	0.016 µg/mL (≈ 0.0282 µM)	≤ 0.008 µg/mL	0.031 µg/mL (≈ 0.0547 µM)	0.25 µg/mL (≈ 0.441 µM)	0.25 µg/mL (≈ 0.441 µM)	0.063 µg/mL (≈ 0.111 µM)	4 µg/mL (≈ 7.06 µM)	0.063 µg/mL (≈ 0.111 µM)	0.13 µg/mL (≈ 0.229 µM)	0.031 µg/mL (≈ 0.0547 µM)	8 µg/mL (≈ 14.1 µM)	1 µg/mL (≈ 1.76 µM)	0.5 µg/mL (≈ 0.882 µM)	8 µg/mL (≈ 14.1 µM)	0.25 µg/mL (≈ 0.441 µM)	0.031 µg/mL (≈ 0.0547 µM)	64 µg/mL (≈ 113 µM)	0.25 µg/mL (≈ 0.441 µM)	0.031 µg/mL (≈ 0.0547 µM)	4 µg/mL (≈ 7.06 µM)	MIC [21]: 0.031 µg/mL (≈ 0.0547 µM); MIC [22]: 0.063 µg/mL (≈ 0.111 µM); MIC [23]: 0.25 µg/mL (≈ 0.441 µM); MIC [24]: 0.031 µg/mL (≈ 0.0547 µM); MIC [25]: 0.031 µg/mL (≈ 0.0547 µM)
CCO/N=C(\C(=O)N[C@@H]1C(=O)N2C(C(=O)[O-])=C(CSc3nc(N)cc(NC)[n+]3C)CS[C@H]12)c1csc(N)n1 [Example 36, 7-[(Z)-2-(2-aminothiazol-4-yl)-2-(ethoxyimino)acetamido]-3-(4-amino-6-methylamino-1-methylpyrimidinium-2-yl)thiomethyl-3-cephem-4-carboxylate]	0.016 µg/mL (≈ 0.0276 µM)	≤ 0.008 µg/mL	≤ 0.008 µg/mL	0.13 µg/mL (≈ 0.224 µM)	0.25 µg/mL (≈ 0.431 µM)	0.016 µg/mL (≈ 0.0276 µM)	4 µg/mL (≈ 6.9 µM)	≤ 0.008 µg/mL	0.13 µg/mL (≈ 0.224 µM)	≤ 0.008 µg/mL	8 µg/mL (≈ 13.8 µM)	0.13 µg/mL (≈ 0.224 µM)	0.5 µg/mL (≈ 0.863 µM)	32 µg/mL (≈ 55.2 µM)	0.25 µg/mL (≈ 0.431 µM)	0.031 µg/mL (≈ 0.0535 µM)	32 µg/mL (≈ 55.2 µM)	0.13 µg/mL (≈ 0.224 µM)	≤ 0.008 µg/mL	4 µg/mL (≈ 6.9 µM)	MIC [21]: 0.063 µg/mL (≈ 0.109 µM); MIC [22]: 0.063 µg/mL (≈ 0.109 µM); MIC [23]: 0.25 µg/mL (≈ 0.431 µM); MIC [24]: 0.031 µg/mL (≈ 0.0535 µM); MIC [25]: 0.063 µg/mL (≈ 0.109 µM)
CCO/N=C(\C(=O)N[C@@H]1C(=O)N2C(C(=O)[O-])=C(CSc3nc(N)cc[n+]3N)CS[C@H]12)c1csc(N)n1 [Example 42, 7-[(Z)-2-(2-aminothiazol-4-yl)-2-(ethoxyimino)acetamido]-3-(1,4-diaminopyrimidinium-2-yl)thiomethyl-3-cephem-4-carboxylate]	0.25 µg/mL (≈ 0.453 µM)	≤ 0.008 µg/mL	0.063 µg/mL (≈ 0.114 µM)	0.5 µg/mL (≈ 0.906 µM)	1 µg/mL (≈ 1.81 µM)	0.063 µg/mL (≈ 0.114 µM)	4 µg/mL (≈ 7.25 µM)	≤ 0.008 µg/mL	0.13 µg/mL (≈ 0.236 µM)	0.25 µg/mL (≈ 0.453 µM)	8 µg/mL (≈ 14.5 µM)	0.13 µg/mL (≈ 0.236 µM)	0.5 µg/mL (≈ 0.906 µM)	8 µg/mL (≈ 14.5 µM)	0.13 µg/mL (≈ 0.236 µM)	0.031 µg/mL (≈ 0.0562 µM)	32 µg/mL (≈ 58 µM)	0.5 µg/mL (≈ 0.906 µM)	≤ 0.008 µg/mL	4 µg/mL (≈ 7.25 µM)	MIC [21]: 0.25 µg/mL (≈ 0.453 µM); MIC [22]: 0.063 µg/mL (≈ 0.114 µM); MIC [23]: 1 µg/mL (≈ 1.81 µM); MIC [24]: 0.031 µg/mL (≈ 0.0562 µM); MIC [25]: 0.031 µg/mL (≈ 0.0562 µM)
